Source: patent US11150255B2, “Additive channels” (Emulate Inc., priority 2016, dated 2021)
Entries after “also recorded” stand apart in the source; their conditions may differ. Positions of bridges follow the written chain, without caps; N, C: chain ends. Non-standard residues stand in square brackets, D forms with d. Residues, ends and D or L forms follow the SMILES beside them. hArg = N=C(N)NCCCC[C@H](N)C(=O)O; Mpa = O=C(O)CCS

Legend:
[1] = tested on: platelets in human whole blood over HUVEC endothelium; experiment: Vessel-On-Chip blood perfusion, platelet coverage by fluorescence imaging; format: cell-based; details: for platelet aggregation / platelet coverage: TNF-α 50 ng/ml 6 hours endothelial pre-treatment or sCollagen 10 μg/ml in blood, vs blood alone; for platelet aggregate formation / platelet coverage: hu5C8 240 μg/ml, sCD40L 10 ng/ml, untreated endothelium, 60 μl/minute, vs untreated blood
Method: (§1) Briefly, human blood was drawn in citrate buffer and used within 4 hours. Platelets were stained using fluorescently labeled non-blocking antibodies for the platelet surface marker CD41 and low dosages of fluorescent fibrinogen were added in order to visualize fibrin deposition. Blood was re-calcified in order to re-establish the full coagulation potential, then introduced in the biomimetic vessel-on-chip from the main inlet (embodiments of inlets shown in FIG. 18A-1, FIG. 18A-2 and FIG. 19C). The outlet of the chip was connected to a pulling syringe pump with a system of tubing and connectors made of medical grade silicon that excludes any metal components or potential causes of platelet activation (FIG. 5A).
(§2) After 14 minutes of perfusion, the flow was interrupted and the chips were immediately imaged via fluorescence microscopy (FIG. 18C and FIG. 19D). In healthy conditions, endothelial cells will provide an antithrombotic surface where blood can flow smoothly, and indeed we detected minimal platelet adhesion or fibrin deposition in our vessel-on-chip after blood perfusion in control conditions, FIG. 18C, Blood.
Platelets were labeled with human CD41-PE antibody (10 μL/ml, Invitrogen) directly added to the blood and incubated at room temperature for 5 minutes.
A medical grade plastic reservoir was mounted on the chip, then 800 μl of the blood sample was pipetted into the reservoir. The chip was perfused with the blood by withdrawing it at a rate of 60 μl/minute using a syringe pump. The citrated blood was re-calcified 2 minutes after the beginning of each experiment by adding 100 μl/ml of a solution containing 100 mM calcium chloride and 75 mM magnesium chloride to the blood to permit calcium- and magnesium-dependent platelet function and coagulation.
(§3) Chips perfused with blood samples were immediately imaged via fluorescence microscopy (Olympus IX83, 10× objective UPLFLN10×2, Orca-Flash4.0 CMOS Camera). Each chamber was inspected along its entire length and S images (about 0.25 cm) were captured from the central area of the chamber. Image processing and quantification was performed with an automatic macro compiled in ImageJ and numerical values corresponding to platelet coverage or fibrin florescence were collected and statistically analyzed in Graphpad Prism V7.
(§4) A percentage of signal coverage (or Platelet coverage) was computed from the binary image as the ratio of bright pixels to the total number of pixels in the image. Image processing and quantification was performed with an automatic macro compiled in ImageJ in order to ensure unbiased signal measurements. Numerical values corresponding to platelet coverage or fibrin fluorescence (signal intensity) were collected and statistically analyzed in Graphpad Prism V7.

FcγRIIa = experiment: Vessel-On-Chip thrombosis, all endpoints (platelet coverage, fibrin deposition, TAT); format: cell-based, human; details: for hu5C8-mediated thrombosis on-chip (platelet coverage, fibrin deposition, TAT): with sCD40L 10 ng/ml, IV.3 1 μg/ml pre-incubation or IgG2σ variant in place of hu5C8
[2] = tested on: fibrin deposition on the endothelium; experiment: Vessel-On-Chip blood perfusion, fibrin deposition by fluorescent fibrinogen imaging; format: cell-based, human; details: for fibrin deposition / fibrin signal intensity: TNF-α 50 ng/ml 6 hours endothelial pre-treatment or sCollagen 10 μg/ml in blood, vs blood alone; for fibrin deposition / fibrin clot formation: hu5C8 240 μg/ml, sCD40L 10 ng/ml, untreated endothelium, 60 μl/minute, vs untreated blood
Method: as §1, §2
When analyzing the formation of fibrin, […] of fluorescently labeled fibrinogen (Alexa 488, Invitrogen) was also added to the blood. While fluorescent fibrinogen was barely detected as a diffused fluorescence, fibrin deposition on inflamed cells and sparse clots was easily distinguished since fibrin formed filamentous structures produce a signal intensity that is clearly observed above a background threshold.
as §3, §4

[3] = tested on: thrombin anti-thrombin complex (TAT); experiment: Thrombin anti-thrombin (TAT) ELISA in chip effluent plasma; format: cell-based, human; details: TNF-α endothelial pre-treatment or sCollagen in blood; outflow samples
Method: Thrombin converts fibrinogen into fibrin during clot formation, and anti-thrombin plays a role in maintaining homeostasis by inhibiting the effect of thrombin. Formation of TAT in the microdevice confirms that local and intrinsic generation of thrombin, a potent platelet agonist, occurs in the model and that counter regulatory mechanisms for coagulation are retained. Thus, blood sampled from the Vessel-On-Chip was analyzed for thrombin anti-thrombin complex (TAT), an accepted clinical biomarker for procoagulation^48,49. […] An enzyme-linked immunosorbant assay (ELISA) was used to quantify the thrombin anti-thrombin complex (TAT).
Thrombin Anti-Thrombin (TAT) levels were analyzed in plasma from blood flowing out of the chip device by removing a sample from the outflow port. Thus TAT levels were evaluated in sample effluents collected from the outflow port of the chip using the Human TAT ELISA Kit (Siemens Healthineers) according to the user manual.
Blood sampled from the Vessel-On-Chip outflow port was analyzed for thrombin anti-thrombin complex (TAT), a factor released upon activation of the coagulation cascade and one of the biomarkers associated with thrombotic events occurring in patients affected with deep vein thrombosis (DVT) or SLE^45,46. […] An enzyme-linked immunosorbant assay (ELISA) was used to quantify the thrombin anti-thrombin complex (TAT).

patients = details: hu5C8: lupus nephritis study; IDEC-131: Crohn's disease trial; cited from earlier work
[4] = Eptifibatide 2 ug/ml, endothelium inflamed with TNF-α, n=4

In the case of `N=C(N)NCCCC[C@@H]1NC(=O)CCSSC[C@@H](C(N)=O)NC(=O)[C@@H]2CCCN2C(=O)[C@H](Cc2c[nH]c3ccccc23)NC(=O)[C@H](CC(=O)O)NC(=O)CNC1=O` [Eptifibatide] ([Mpa][hArg]GDWPC-NH2; disulfide 1-7), the “inhibitory effect on platelet aggregation and fibrin clot formation” value ([1]; Eptifibatide 2 ug/ml, blood treated with sCollagen, n=4) is reported as “comparatively modest”, the platelet aggregation [1, 4] is reported as “significantly inhibited” and the “platelet adhesion (image analysis of multiple experiments)” value ([1]; Eptifibatide 2 ug/ml, n=4) is reported as “completely inhibited”. For the same compound, the “platelet coverage in stimulated, pro-thrombotic conditions” value ([1]; TNF-α or sCollagen, with Eptifibatide, FIG. 18E-1, n=4 donors) was “suppressed”, the “thrombotic events recapitulated in the system” value (FcγRIIa; clinically relevant dosages of Eptifibatide) was “inhibited” and the fibrin clot formation [2, 4] was “significantly inhibited”. The “fibrin signal (image analysis of multiple experiments)” value ([2]; Eptifibatide 2 ug/ml, samples treated with TNF-α, n=4) was “a significant amount of fibrin signal was still detectable” and the “fibrin deposition in stimulated, pro-thrombotic conditions” value ([2]; TNF-α or sCollagen, with Eptifibatide, FIG. 18E-2, n=4 donors) was “suppressed”.

With TNF-α the “levels of TAT” value [3] was “significantly increased; also recorded: elevated levels”, the “platelet aggregation / platelet coverage” value [1] was “increased; also recorded: high number of larger aggregates” and the “fibrin deposition / fibrin signal intensity” value [2] was “increased”.

With “hu5C8 (IgG2σ): IgG2σ variant of hu5C8 with an engineered Fc region that eliminates affinity for the FcγRIIa” the “hu5C8-mediated thrombosis on-chip (platelet coverage, fibrin deposition, TAT)” value (from here on “hu5C8-mediated thrombosis on-chip”) (FcγRIIa) was “did not show signs of thrombosis”, the “hu5C8-mediated thrombosis on-chip” value (FcγRIIa; listed as IgG2σ) was “suppressed” and the “hu5C8-mediated thrombosis on-chip” value (FcγRIIa; listed as hu5C8-IgG2σ) was “not detected”.

For “hu5C8: humanized monoclonal IgG1 antibody against CD40L, alternatively named anti-sCD40L or anti-CD154”, the “platelet aggregate formation / platelet coverage” value [1] is listed as “no significant treatment-related effects”, the “incidence of thromboembolic events in clinical study” value (patients) is listed as 2/18 and the “fibrin deposition / fibrin clot formation” value [2] is listed as “no significant treatment-related effects”.

In the case of sCD40L: Recombinant human sCD40 Ligand, the “platelet aggregate formation / platelet coverage” value [1] is reported as “no significant treatment-related effects; also recorded: not statistically significant”, the “increase in platelet coverage in some donors, fold over untreated control” value ([1]; sCD40L alone) is reported as “about 2 fold” and the “fibrin deposition / fibrin clot formation” value [2] is reported as “no significant treatment-related effects”.

In the case of “sCollagen: soluble collagen (Soluble Calf Skin, Type I), a standard platelet activator”, the “levels of TAT” value [3] is reported as “minimally increased; also recorded: elevated levels”, the “platelet aggregation / platelet coverage” value [1] is reported as “increased; also recorded: high number of larger aggregates” and the “fibrin deposition / fibrin signal intensity” value [2] is reported as “increased”.
